Measured values taken from paper PMC5201331, “Subchronic Toxicities of HZ1006, a Hydroxamate-Based Histone Deacetylase Inhibitor, in Beagle Dogs and Sprague-Dawley Rats” (International Journal of Environmental Research and Public …, 2016).

What was measured:
Type in all cases: in vivo
Beagle dogs [1] = assay: Subchronic toxicity test in Beagle dogs: clinical observation; settings: for Frequencies of Diarrhea / Frequencies of Vomiting: beagle, dog, in vivo, po, 42 days
Method: (§1) HZ1006 was administered orally to dogs (four/sex/group) at doses of 80, 40, 20, 5 and 0 (control) mg/kg/day, and the dosage volume was 2 mL/kg. The dogs received test doses with the exact amounts on a weekly basis based on current body weights. […] The other dogs in the above groups were dissected on the planned days. For the other groups, half of the dogs were anatomized on d28 and the remaining half on d42.
(§2) Clinical symptoms and mortality were examined at least twice daily during the 42-day period, which included any changes in reaction to treatment, behavior, illness, food consumption, and body weight. Breathing rates, rectal temperature and pupil changes in the Beagle dogs were assessed once every 2 weeks.

Beagle dogs [2] = assay: Subchronic toxicity test in Beagle dogs: histopathology; settings: after 28 days
Method: as §1
After euthanasia, the following organs or tissues were isolated from the dogs and rats: skin, abnormal lesions, spleen, mammary glands, jejunum, pancreas, ileum, duodenum, stomach, colon, cecum, lymph nodes, mesenteric salivary glands, liver, submandibular lymph nodes, thymus, sternum, lungs, heart, esophagus, trachea, tongue, thyroid with parathyroid gland, sciatic nerve, aorta, femurs, skeletal muscle, pituitary gland, brain, kidneys, eyes, urinary bladder, adrenal glands, uterus, ovaries, testes, epididymis and prostate. The weights of the animal organs, such as the liver, spleen, heart, thymus, brain, lungs, adrenal glands, kidneys, uterus, ovaries, epididymis and testes, were tested using an electronic balance. The organs or tissues were fixed using 10% neutral buffered formalin and were then gradient dehydrated, embedded, sectioned, and stained with routine hematoxylin-eosin prior to histopathological observations.

[3] = Toxicokinetics in Beagle dogs; settings: for accumulation coefficient R: after 28 days compared with d1; for Tmax / Cmax / half-life / AUC(0-inf): both sexes, Beagle, dog
Method: as §1
The dogs’ blood samples were obtained on the 1st day, the 14th day and the last day (d28) of dosage for plasma HZ1006 content analyses at 0 (1st day only), 1/6, 0.5, 1, 2, 4, 8, 12 and 24 h after dosing, and the blood samples of the rats were acquired on the 1st day and 28th day at the same time as those of the dogs, which were handled and analyzed according to the procedure reported by Zhang et al..

SD rats = assay: Subchronic toxicity test in SD rats: clinical observation, body weight; settings: for body weight reduced compared with the control group: male rats, 120 mg/kg oral daily
Method: The rats that were judged suitable for the subchronic toxicity study were randomly divided into four groups (10 rats/sex/group). The rats received the test sample by gavage once daily for 28 days. HZ1006 was administered to the rats at doses of 120, 60, 20 and 0 (control) mg/kg, and the dosage volume was 5 mL/kg. Half of the 80 rats (half male and half female) were selected randomly according to body weight and dissected at d28. The remaining rats were dissected at d42.
as §2

[4] = plasma, po, 5 mg/kg/day, 5 mg/kg/day oral, 14 days
[5] = plasma, po, 5 mg/kg/day, 5 mg/kg/day oral, 28 days
[6] = plasma, po, 5 mg/kg/day, 5 mg/kg/day oral, single
[7] = plasma, po, 20 mg/kg/day, 20 mg/kg/day oral, 14 days
[8] = plasma, po, 20 mg/kg/day, 20 mg/kg/day oral, 28 days
[9] = plasma, po, 20 mg/kg/day, 20 mg/kg/day oral, single
[10] = plasma, po, 40 mg/kg/day, 40 mg/kg/day oral, 14 days
[11] = plasma, po, 40 mg/kg/day, 40 mg/kg/day oral, 28 days
[12] = plasma, po, 40 mg/kg/day, 40 mg/kg/day oral, single
[13] = plasma, po, 80 mg/kg/day, 80 mg/kg/day oral, 14 days
[14] = plasma, po, 80 mg/kg/day, 80 mg/kg/day oral, 28 days
[15] = plasma, po, 80 mg/kg/day, 80 mg/kg/day oral, single

CCCCCCCNc1cc(/C=C/C(=O)NO)ccc1OCCN(CC)CC [HZ1006]
mortality (Beagle dogs [1]; dogs, 5-80 mg/kg/day oral, ♀6 d8 and ♀8 d10 (80 mg/kg), ♀28 d16 (40 mg/kg)): Three dogs died during the study
Frequencies of Diarrhea (Beagle dogs [1]; female, 5 mg/kg/day): 0 days
Frequencies of Vomiting (Beagle dogs [1]; female, 5 mg/kg/day): 0 days
Frequencies of Diarrhea (Beagle dogs [1]; female, 20 mg/kg/day): 0 days
Frequencies of Diarrhea (Beagle dogs [1]; male, 5 mg/kg/day): 0 days
Frequencies of Vomiting (Beagle dogs [1]; male, 5 mg/kg/day): 0 days
Frequencies of Diarrhea (Beagle dogs [1]; male, 20 mg/kg/day): 0 days
Bone marrow of sternum: decrease in hematopoietic cell numbers (incidence/number examined) (Beagle dogs [2]; 5 mg/kg/day oral): 0/4
Epididymis: lack of mature sperm and secretions in the epididymal lumen as well as decrease of epididymal lumen size (incidence/number examined) (Beagle dogs [2]; 5 mg/kg/day oral): 0/2
Lung: large confluent bronchopneumonia (incidence/number examined) (Beagle dogs [2]; 5 mg/kg/day oral): 0/4
Prostate: reduction in numbers and size, thinner epithelium, narrowing of the glandular cavity of prostatic acini (incidence/number examined) (Beagle dogs [2]; 5 mg/kg/day oral): 0/2
Testis: Reduction in numbers and types of spermatogenic cells (incidence/number examined) (Beagle dogs [2]; 5 mg/kg/day oral): 0/2
Epididymis: lack of mature sperm and secretions in the epididymal lumen as well as decrease of epididymal lumen size (incidence/number examined) (Beagle dogs [2]; 20 mg/kg/day oral): 0/2
Lung: large confluent bronchopneumonia (incidence/number examined) (Beagle dogs [2]; 20 mg/kg/day oral): 0/4
Prostate: reduction in numbers and size, thinner epithelium, narrowing of the glandular cavity of prostatic acini (incidence/number examined) (Beagle dogs [2]; 20 mg/kg/day oral): 0/2
Testis: Reduction in numbers and types of spermatogenic cells (incidence/number examined) (Beagle dogs [2]; 20 mg/kg/day oral): 0/2
Bone marrow of sternum: decrease in hematopoietic cell numbers (incidence/number examined) (Beagle dogs [2]; 40 mg/kg/day oral): 2/4
Epididymis: lack of mature sperm and secretions in the epididymal lumen as well as decrease of epididymal lumen size (incidence/number examined) (Beagle dogs [2]; 40 mg/kg/day oral): 2/2
Lung: large confluent bronchopneumonia (incidence/number examined) (Beagle dogs [2]; 40 mg/kg/day oral): 2/4
Prostate: reduction in numbers and size, thinner epithelium, narrowing of the glandular cavity of prostatic acini (incidence/number examined) (Beagle dogs [2]; 40 mg/kg/day oral): 2/2
Testis: Reduction in numbers and types of spermatogenic cells (incidence/number examined) (Beagle dogs [2]; 40 mg/kg/day oral): 2/2
Bone marrow of sternum: decrease in hematopoietic cell numbers (incidence/number examined) (Beagle dogs [2]; 80 mg/kg/day oral): 3/4
Epididymis: lack of mature sperm and secretions in the epididymal lumen as well as decrease of epididymal lumen size (incidence/number examined) (Beagle dogs [2]; 80 mg/kg/day oral): 2/2
Lung: large confluent bronchopneumonia (incidence/number examined) (Beagle dogs [2]; 80 mg/kg/day oral): 2/4
Prostate: reduction in numbers and size, thinner epithelium, narrowing of the glandular cavity of prostatic acini (incidence/number examined) (Beagle dogs [2]; 80 mg/kg/day oral): 2/2
Testis: Reduction in numbers and types of spermatogenic cells (incidence/number examined) (Beagle dogs [2]; 80 mg/kg/day oral): 2/2
accumulation coefficient R ([3]; 5 mg/kg/day oral): 1.3 ± 1.2
accumulation coefficient R ([3]; 80 mg/kg/day oral): 1.2 ± 0.9
Tmax ([3]; in vivo, 20 mg/kg/day oral, 28 days): 3.17 ± 1.33 h
Cmax ([3]; in vivo, 40 mg/kg/day oral, single): 456 ± 376 ng/mL
half-life ([3]; in vivo, 80 mg/kg/day oral, 28 days): 7.56 ± 3.27 h
AUC(0-inf) [3, 4]: 199 ± 69.6 ng·h/mL
Cmax [3, 4]: 30.1 ± 14.2 ng/mL
Tmax [3, 4]: 4.2 ± 2.01 h
half-life [3, 4]: 4.75 ± 1.23 h
AUC(0-inf) [3, 5]: 616 ± 242 ng·h/mL
Cmax [3, 5]: 65.7 ± 42 ng/mL
Tmax [3, 5]: 4.33 ± 2.94 h
half-life [3, 5]: 7.34 ± 1.02 h
AUC(0-inf) [3, 6]: 193 ± 64.6 ng·h/mL
Cmax [3, 6]: 35.6 ± 15.1 ng/mL
Tmax [3, 6]: 3.67 ± 1.52 h
half-life [3, 6]: 4.4 ± 0.61 h
AUC(0-inf) [3, 7]: 620 ± 249 ng·h/mL
Cmax [3, 7]: 68.1 ± 22.8 ng/mL
Tmax [3, 7]: 4 ± 2.19 h
half-life [3, 7]: 5.21 ± 0.53 h
AUC(0-inf) [3, 8]: 389 ± 104 ng·h/mL
Cmax [3, 8]: 55.2 ± 21.8 ng/mL
half-life [3, 8]: 5.35 ± 0.73 h
AUC(0-inf) [3, 9]: 1190 ± 320 ng·h/mL
Cmax [3, 9]: 139 ± 73.4 ng/mL
Tmax [3, 9]: 3.5 ± 2.51 h
half-life [3, 9]: 5.54 ± 1.53 h
AUC(0-inf) [3, 10]: 1020 ± 977 ng·h/mL
Cmax [3, 10]: 199 ± 175 ng/mL
Tmax [3, 10]: 1.9 ± 1.34 h
half-life [3, 10]: 7.34 ± 3.82 h
AUC(0-inf) [3, 11]: 928 ± 298 ng·h/mL
Cmax [3, 11]: 162 ± 102 ng/mL
Tmax [3, 11]: 2.2 ± 1.1 h
half-life [3, 11]: 5.08 ± 1.04 h
AUC(0-inf) [3, 12]: 2500 ± 1490 ng·h/mL
Tmax [3, 12]: 2.7 ± 2.7 h
half-life [3, 12]: 6.93 ± 3.03 h
AUC(0-inf) [3, 13]: 1550 ± 758 ng·h/mL
Cmax [3, 13]: 174 ± 123 ng/mL
Tmax [3, 13]: 4.43 ± 3.53 h
half-life [3, 13]: 7.23 ± 3.45 h
AUC(0-inf) [3, 14]: 1820 ± 570 ng·h/mL
Cmax [3, 14]: 180 ± 83.4 ng/mL
Tmax [3, 14]: 4.6 ± 3.29 h
AUC(0-inf) [3, 15]: 3870 ± 2630 ng·h/mL
Cmax [3, 15]: 365 ± 257 ng/mL
Tmax [3, 15]: 3.5 ± 2.51 h
half-life [3, 15]: 6.74 ± 2.2 h
body weight reduced compared with the control group (SD rats; week 4): 8%
body weight reduced compared with the control group (SD rats; week 5): 15%
survival (SD rats; rats, 20-120 mg/kg oral daily, 28 days + 14-day recovery): All rats survived until the scheduled necropsies
